Laboratory results: US20130065883A1 (Centro Nacional de Investigaceiones Oncologicas (CNIO), priority 2010, published 2013)
Like-named read-outs stand apart in the source and are kept apart here.

What was measured:
[1] = Metabolic stability assay; format: in vitro ADME; settings: percentage metabolic stability in human liver microsomes
Description: The metabolic stability assay was performed in Wuxi. 1 μM, 15 min. The kinase selectivity testing was performed in ProQinase GmbH, Germany.

[2] = system: H1299 cells overexpressing Pim1 (H1299Pim1); assay: BAD S112 phosphorylation inhibition assay (In Cell ELISA); format: cell-based; settings: Homo sapiens, NCI-H1299, inhibition of Bad-phosphorylation, read-out: Cell assay BAD_P H1299 PIM1
tumor cell lines = assay: Combination assay (MTT in vitro cell proliferation, combination index); format: cell-based; settings: for EC50: read-out: Pim Inh EC50
panel of 24 kinases = assay: Kinase selectivity testing (percentage inhibition of 24 kinases at 1 μM); format: biochemical; settings: proquinase

SMILES: COc1cc(NCC2CCNCC2)nc2c1nnn2-c1cccc(OC(F)(F)F)c1 [2-92]
- Stability in HLM [1]: 96.65%
- EC50 [2]: 136 nM
- Synergy (tumor cell lines; A549, combined with GDC-0941): +++ (0.1 < CI < 0.3 (+++))
- Synergy (tumor cell lines; DU145, combined with Taxotere): ++ (0.3 < CI < 0.7 (++))
- EC50 (tumor cell lines; HTC116, colon carcinoma): 10 µM
- Synergy (tumor cell lines; HTC116, combined with PD-0325901): +++ (0.1 < CI < 0.3 (+++))
- Synergy (tumor cell lines; HTC116, combined with lapatinib): +++ (0.1 < CI < 0.3 (+++))
- EC50 (tumor cell lines; Homo sapiens, SK-MEL19, SKMel19, melanoma): 1 µM
- Synergy (tumor cell lines; MV4:11, combined with lapatinib): ++ (0.3 < CI < 0.7 (++))
- Synergy (tumor cell lines; MiaPaca-2, combined with Gemcitabine): + (0.7 < CI < 1.2 (+))
- Synergy (tumor cell lines; NCIH1975, combined with GDC-0941): ++ (0.3 < CI < 0.7 (++))
- Synergy (tumor cell lines; PC3, combined with GDC-0941): + (0.7 < CI < 1.2 (+))
- Synergy (tumor cell lines; SKMel19, combined with GDC-0879): +++ (0.1 < CI < 0.3 (+++))
- Synergy (tumor cell lines; SKMel19, combined with GDC-0941): ++ (0.3 < CI < 0.7 (++))
- % inhibiton at 1 uM AKT2 (panel of 24 kinases; AKT2, 1 uM): 0%
- % inhibiton at 1 uM B_RAF V600E (panel of 24 kinases; B_RAF V600E, 1 uM): 1%
- % inhibiton at 1 uM CDK8 CYCC (panel of 24 kinases; CDK8 CYCC, 1 uM): 0%
- % inhibiton at 1 uM CHK1 (panel of 24 kinases; CHK1, 1 uM): 0%
- % inhibiton at 1 uM CK1 Alpha 1 (panel of 24 kinases; CK1 Alpha 1, 1 uM): 4%
- % inhibiton at 1 uM DYRK 1A (panel of 24 kinases; DYRK 1A, 1 uM): 0%
- % inhibiton at 1 uM EGF_R (panel of 24 kinases; EGF_R, 1 uM): 1%
- % inhibiton at 1 uM FAK (panel of 24 kinases; FAK, 1 uM): 0%
- % inhibiton at 1 uM FGFR1 (panel of 24 kinases; FGFR1, 1 uM): 0%
- % inhibiton at 1 uM IGF1_R (panel of 24 kinases; IGF1_R, 1 uM): 5%
- % inhibiton at 1 uM IKK BETA (panel of 24 kinases; IKK BETA, 1 uM): 0%
- % inhibiton at 1 uM INS_R (panel of 24 kinases; INS_R, 1 uM): 0%
- % inhibiton at 1 uM JAK2 (panel of 24 kinases; JAK2, 1 uM): 2%
- % inhibiton at 1 uM KIT (panel of 24 kinases; KIT, 1 uM): 2%
- % inhibiton at 1 uM MEK1 (panel of 24 kinases; MEK1, 1 uM): 1%
- % inhibiton at 1 uM MET (panel of 24 kinases; MET, 1 uM): 0%
- % inhibiton at 1 uM PAK1 (panel of 24 kinases; PAK1, 1 uM): 8%
- % inhibiton at 1 uM PDGFR Alpha (panel of 24 kinases; PDGFR Alpha, 1 uM): 0%
- % inhibiton at 1 uM PDK1 (panel of 24 kinases; PDK1, 1 uM): 0%
- % inhibiton at 1 uM PLK1 (panel of 24 kinases; PLK1, 1 uM): 0%
- % inhibiton at 1 uM SGK1 (panel of 24 kinases; SGK1, 1 uM): 6%
- % inhibiton at 1 uM SRC (panel of 24 kinases; SRC, 1 uM): 8%
